Assay results: patent US20230241075A1, “IRAK DEGRADERS AND USES THEREOF” (Kymera Therapeutics, Inc., priority 2020, published 2023)
“Also recorded” adds a separate entry of the source.

Test system: TLR7/8 agonist R848-stimulated monocytes
Experiment: Ex-vivo R848-stimulated healthy monocytes, RNA-seq of HS-overexpressed proinflammatory transcripts
Assay type: cell-based, human
Conditions: healthy donor monocytes (N=3), 500 nM overnight, then R848, RNA-seq at 2 hours

Cn1c(=O)n(C2CCC(=O)NC2=O)c2cccc(C#CCOC3CCN(C[C@H]4CC[C@H](n5cc(NC(=O)c6cnn7ccc(N8C[C@H]9C[C@@H]8CO9)nc67)c(C(F)F)n5)CC4)CC3)c21 (stereo partly shown) [Degrader 2]
effect on TLR-mediated (R848) induction of HS-overexpressed proinflammatory transcripts: inhibits TLR-mediated induction of HS-overexpressed proinflammatory transcripts; also recorded: inhibits TLR-stimulated upregulation of HS-overexpressed inflammatory genes
